Measurements published in paper PMC13288994, “Identification and characterization of novel chikungunya virus polymerase inhibitors” (Journal of Virology, 2026).
Read-outs that look alike come from different tables or passages of the source.

Legend:
[1] = molecular target: T1, CHIKV trans-replicase (P1234) (Chikungunya virus, UniProt Q8JUX6); test: Trans-replicase assay, CHIKV; type: cell-based; details: 100 µM, U-2 OS, 20 h
T1 construct: expression of the P1234 polyprotein drives replication of a reporter RNA template; expressed in transfected cells; host or cells: U-2 OS
Description: (§1) U-2 OS cells were seeded at 75,000 cells per well in 24-well plates and cultured for 24 h. Cells were then co-transfected with 250 ng of plasmid encoding template RNA and 250 ng of plasmid encoding P1234 WT ([72], [73]), using Lipofectamine LTX with PLUS reagent (ThermoFisher Scientific) following the manufacturer’s instructions. After 4 h of post-transfection, medium containing 100 µM of compounds or DMSO was added to the cells. Cells were then incubated for 20 h, lysed, and GLuc activity was quantified using the Dual-Luciferase Reporter Assay System (Promega). Luciferase activities were normalized to those of the DMSO-treated controls.

[2] = tested on: EILV trans-replicase (P1234); test: Trans-replicase assay, EILV; type: cell-based, Eilat virus; details: 100 µM, U-2 OS, 20 h
Description: as §1

SARS-CoV-2-nLuc = test: microbe, parasite or virus in culture; type: cell-based; details: VeroE6-TMPRSS2 cells, read-out: Antiviral potency (EC50 [µM]) SARS-CoV-2
ONNV = test: organism not typed; type: cell-based, o'nyong-nyong virus; details: read-out: EC50 virus production, ONNV
[3] = molecular target: T2, SINV trans-replicase (P1234) (Sindbis virus, UniProt P03317); test: Trans-replicase assay, SINV; type: cell-based; details: 100 µM, U-2 OS, 20 h
T2 construct: expression of the P1234 polyprotein drives replication of a reporter RNA template; expressed in transfected cells; host or cells: U-2 OS
Description: as §1

[4] = molecular target: T3, SFV trans-replicase (P1234) (Semliki forest virus, UniProt P08411); test: Trans-replicase assay, SFV; type: cell-based; details: 100 µM, U-2 OS, 20 h
T3 construct: expression of the P1234 polyprotein drives replication of a reporter RNA template; expressed in transfected cells; host or cells: U-2 OS
Description: as §1

[5] = molecular target: EEEV trans-replicase (P1234) (Eastern equine encephalitis virus, UniProt Q306W6); type: cell-based
[6] = molecular target: T4, ONNV trans-replicase (P1234) (O'nyong-nyong virus, UniProt P13886); test: Trans-replicase assay, ONNV; type: cell-based; details: 100 µM, U-2 OS, 20 h
T4 construct: expression of the P1234 polyprotein drives replication of a reporter RNA template; expressed in transfected cells; host or cells: U-2 OS
Description: as §1

RSV A2-L19F = test: microbe, parasite or virus in culture; type: cell-based; details: Hep-2 cells, read-out: Antiviral potency (EC50 [µM]) RSV
CHIKV 181/25 = test: Virus yield dose-response in U-2 OS cells, CHIKV; type: cell-based, Chikungunya virus
HPIV3-nLuc = test: microbe, parasite or virus in culture; type: cell-based; details: VeroE6 cells, read-out: Antiviral potency (EC50 [µM]) HPIV3
MAYV = test: microbe, parasite or virus in culture; type: cell-based, Mayaro virus; details: read-out: EC50 virus production, MAYV
CHIKV-nLuc [7] = type: cell-based, Chikungunya virus; details: 20 µM, U-2 OS, reporter read at 24 h
CHIKV-nLuc [8] = test: microbe, parasite or virus in culture; type: cell-based, Chikungunya virus; details: for EC50: MOI 0.1 FFU/cell, 24 hpi, in-house synthesized compound
CHIKV-nLuc [9] = test: microbe, parasite or virus in culture; type: cell-based, Chikungunya virus; details: MOI 0.1 FFU/cell, 24 hpi, in-house synthesized compound, read-out: EC50 CHIKV-nLuc, U-2 OS
[10] = molecular target: T5, BFV trans-replicase (P1234) (Barmah forest virus, UniProt P87515); test: Trans-replicase assay, BFV; type: cell-based; details: 100 µM, U-2 OS, 20 h
T5 construct: expression of the P1234 polyprotein drives replication of a reporter RNA template; expressed in transfected cells; host or cells: U-2 OS
T5 sequence (P87515 1-2410 limits assumed): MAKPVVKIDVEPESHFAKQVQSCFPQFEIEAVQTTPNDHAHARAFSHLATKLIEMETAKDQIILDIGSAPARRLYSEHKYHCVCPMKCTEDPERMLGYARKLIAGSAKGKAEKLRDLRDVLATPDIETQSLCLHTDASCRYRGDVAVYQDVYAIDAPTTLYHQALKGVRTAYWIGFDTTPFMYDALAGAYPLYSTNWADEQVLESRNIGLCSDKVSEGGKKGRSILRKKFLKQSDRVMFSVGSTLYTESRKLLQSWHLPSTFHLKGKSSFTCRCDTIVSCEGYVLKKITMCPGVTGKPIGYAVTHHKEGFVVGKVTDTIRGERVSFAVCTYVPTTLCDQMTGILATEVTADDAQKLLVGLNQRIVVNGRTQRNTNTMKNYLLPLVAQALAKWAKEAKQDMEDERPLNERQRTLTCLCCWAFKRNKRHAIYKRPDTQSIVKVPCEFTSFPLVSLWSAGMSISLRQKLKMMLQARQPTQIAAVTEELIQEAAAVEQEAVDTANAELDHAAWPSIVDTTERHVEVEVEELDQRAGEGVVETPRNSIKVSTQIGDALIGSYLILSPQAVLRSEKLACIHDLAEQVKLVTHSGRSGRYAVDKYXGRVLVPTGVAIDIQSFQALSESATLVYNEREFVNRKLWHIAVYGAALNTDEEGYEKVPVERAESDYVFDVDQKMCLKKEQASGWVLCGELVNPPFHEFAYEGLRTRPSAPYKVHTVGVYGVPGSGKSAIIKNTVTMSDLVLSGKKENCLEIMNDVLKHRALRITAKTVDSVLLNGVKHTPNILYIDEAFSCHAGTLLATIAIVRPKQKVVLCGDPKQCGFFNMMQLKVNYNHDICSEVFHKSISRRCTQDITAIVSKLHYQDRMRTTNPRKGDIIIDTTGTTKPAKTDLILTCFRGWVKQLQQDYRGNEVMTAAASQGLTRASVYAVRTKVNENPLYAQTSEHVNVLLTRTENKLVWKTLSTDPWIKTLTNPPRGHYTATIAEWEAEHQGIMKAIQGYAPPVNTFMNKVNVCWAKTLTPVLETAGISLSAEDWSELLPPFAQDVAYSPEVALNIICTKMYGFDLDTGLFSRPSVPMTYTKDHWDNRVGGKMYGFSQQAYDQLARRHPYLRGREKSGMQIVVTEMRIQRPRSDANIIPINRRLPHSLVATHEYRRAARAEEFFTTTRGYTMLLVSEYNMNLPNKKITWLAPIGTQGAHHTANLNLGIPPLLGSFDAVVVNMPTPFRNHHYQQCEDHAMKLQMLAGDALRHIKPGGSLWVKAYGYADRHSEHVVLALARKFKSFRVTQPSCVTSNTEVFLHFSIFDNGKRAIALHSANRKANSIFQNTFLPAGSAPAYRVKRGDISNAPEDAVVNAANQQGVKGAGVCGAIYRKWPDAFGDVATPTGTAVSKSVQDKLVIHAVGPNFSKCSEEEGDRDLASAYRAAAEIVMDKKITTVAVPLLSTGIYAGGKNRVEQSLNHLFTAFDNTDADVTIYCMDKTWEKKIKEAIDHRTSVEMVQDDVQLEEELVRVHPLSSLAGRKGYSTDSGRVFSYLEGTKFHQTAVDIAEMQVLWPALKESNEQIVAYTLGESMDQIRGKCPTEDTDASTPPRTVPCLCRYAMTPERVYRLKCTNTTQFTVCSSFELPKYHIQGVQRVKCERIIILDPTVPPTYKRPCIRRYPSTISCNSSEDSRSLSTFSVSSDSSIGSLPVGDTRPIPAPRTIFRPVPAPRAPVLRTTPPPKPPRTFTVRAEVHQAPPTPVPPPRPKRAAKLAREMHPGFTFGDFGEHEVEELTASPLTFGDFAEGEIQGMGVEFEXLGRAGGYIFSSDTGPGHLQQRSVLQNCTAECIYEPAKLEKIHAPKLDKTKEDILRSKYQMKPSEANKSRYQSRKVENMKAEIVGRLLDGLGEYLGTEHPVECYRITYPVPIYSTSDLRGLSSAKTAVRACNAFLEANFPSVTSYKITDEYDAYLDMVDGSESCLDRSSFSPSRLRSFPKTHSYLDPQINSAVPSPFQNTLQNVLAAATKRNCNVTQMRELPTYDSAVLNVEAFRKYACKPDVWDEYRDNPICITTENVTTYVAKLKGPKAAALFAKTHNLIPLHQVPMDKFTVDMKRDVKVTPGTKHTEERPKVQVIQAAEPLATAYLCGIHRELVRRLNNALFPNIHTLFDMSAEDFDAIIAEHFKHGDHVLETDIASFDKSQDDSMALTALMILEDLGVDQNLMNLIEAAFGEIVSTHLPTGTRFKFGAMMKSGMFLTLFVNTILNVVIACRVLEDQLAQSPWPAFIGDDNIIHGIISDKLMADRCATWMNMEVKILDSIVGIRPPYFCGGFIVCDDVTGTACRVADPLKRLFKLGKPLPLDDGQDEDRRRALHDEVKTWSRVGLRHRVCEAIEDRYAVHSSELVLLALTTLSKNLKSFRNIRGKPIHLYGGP
T5 sequence (P87515 1-533 partner limits assumed): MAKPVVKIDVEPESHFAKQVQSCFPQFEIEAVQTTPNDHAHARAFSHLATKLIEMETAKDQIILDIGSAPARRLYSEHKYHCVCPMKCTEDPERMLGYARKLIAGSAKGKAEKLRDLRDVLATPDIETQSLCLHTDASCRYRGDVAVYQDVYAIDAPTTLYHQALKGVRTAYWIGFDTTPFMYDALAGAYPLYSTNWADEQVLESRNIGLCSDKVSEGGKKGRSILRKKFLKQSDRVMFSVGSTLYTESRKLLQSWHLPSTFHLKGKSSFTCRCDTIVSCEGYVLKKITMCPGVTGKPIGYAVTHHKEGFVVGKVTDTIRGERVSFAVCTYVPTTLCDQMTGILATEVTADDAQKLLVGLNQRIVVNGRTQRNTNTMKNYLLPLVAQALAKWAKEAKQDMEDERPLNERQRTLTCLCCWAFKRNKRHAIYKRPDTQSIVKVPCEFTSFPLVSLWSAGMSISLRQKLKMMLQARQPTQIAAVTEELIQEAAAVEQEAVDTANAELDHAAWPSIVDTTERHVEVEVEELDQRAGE
T5 sequence (P87515 534-1331 partner limits assumed): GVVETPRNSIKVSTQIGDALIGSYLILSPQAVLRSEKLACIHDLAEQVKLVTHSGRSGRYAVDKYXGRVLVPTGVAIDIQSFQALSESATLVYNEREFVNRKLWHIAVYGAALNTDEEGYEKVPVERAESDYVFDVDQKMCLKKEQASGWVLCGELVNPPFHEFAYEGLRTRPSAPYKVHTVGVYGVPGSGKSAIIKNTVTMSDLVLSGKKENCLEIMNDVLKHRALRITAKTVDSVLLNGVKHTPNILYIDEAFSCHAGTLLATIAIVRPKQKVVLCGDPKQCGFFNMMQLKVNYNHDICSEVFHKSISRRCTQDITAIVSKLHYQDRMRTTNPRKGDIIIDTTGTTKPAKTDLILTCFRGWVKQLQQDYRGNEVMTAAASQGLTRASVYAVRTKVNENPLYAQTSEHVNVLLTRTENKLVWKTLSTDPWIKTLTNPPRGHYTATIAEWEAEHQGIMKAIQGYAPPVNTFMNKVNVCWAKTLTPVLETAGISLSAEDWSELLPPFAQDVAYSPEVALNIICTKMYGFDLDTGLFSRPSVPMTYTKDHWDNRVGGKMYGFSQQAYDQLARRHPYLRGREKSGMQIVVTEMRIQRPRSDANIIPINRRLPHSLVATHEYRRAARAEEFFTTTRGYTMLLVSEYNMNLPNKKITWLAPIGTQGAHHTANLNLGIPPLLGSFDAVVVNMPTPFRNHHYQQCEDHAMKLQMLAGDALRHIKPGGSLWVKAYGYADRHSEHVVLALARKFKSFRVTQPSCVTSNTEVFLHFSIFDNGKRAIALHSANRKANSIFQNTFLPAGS
Description: as §1

VSV-nLuc = test: microbe, parasite or virus in culture; type: cell-based
SFV = test: microbe, parasite or virus in culture; type: cell-based, Semliki Forest virus; details: read-out: EC50 virus production, SFV
SINV-GLuc = test: microbe, parasite or virus in culture; type: cell-based; details: VeroE6 cells, read-out: Antiviral potency (EC50 [µM]) SINV
CHIKV replicon [11] = details: read-out: Antiviral potency (EC50 [µM]) CHKV replicon; replicon cells
[12] = molecular target: WEEV trans-replicase (P1234) (Western equine encephalitis virus, UniProt P13896); type: cell-based
[13] = tested on: CHIKV-nLuc (181/25 strain); test: microbe, parasite or virus in culture; type: cell-based, Chikungunya virus; details: 384-well format, read 20 h after infection; for inhibition at 5 µM: Chikungunya virus, read-out: Normalized percent inhibition in primary screen
U-2 OS cells [14] = test: Cytotoxicity assay (PrestoBlue, 24 h) in U-2 OS cells; type: cell-based, Human
[15] = molecular target: VEEV trans-replicase (P1234) (Venezuelan equine encephalitis virus, UniProt P36328); type: cell-based
RRV = test: microbe, parasite or virus in culture; type: cell-based, Ross River virus; details: read-out: EC50 virus production, RRV
[16] = molecular target: T6, RRV trans-replicase (P1234) (Ross river virus, UniProt P13887); test: Trans-replicase assay, RRV; type: cell-based; details: 100 µM, U-2 OS, 20 h
T6 construct: expression of the P1234 polyprotein drives replication of a reporter RNA template; expressed in transfected cells; host or cells: U-2 OS
Description: as §1

SINV = test: microbe, parasite or virus in culture; type: cell-based, Sindbis virus; details: read-out: EC50 virus production, SINV
U-2 OS cells [17] = tested on: U-2 OS cells
VEEV-TC83-nLuc = test: microbe, parasite or virus in culture; type: cell-based
NHDF cells = test: Cytotoxicity assay (PrestoBlue, 24 h) in NHDF cells; type: cell-based, Human
Description: (§2) NHDF cells were seeded at 10,000 cells per well in 24-well plates and cultured for 24 h. Cells were then treated with threefold serial dilutions of compounds starting at 500 µM and incubated for 24 h. DMSO was included as a negative control for normalization. Following treatment, cells were incubated with PrestoBlue reagent (ThermoFisher Scientific) for 1 h at 37°C, and fluorescence was measured using a PerkinElmer Victor X5 multilabel plate reader. The CC50 values were determined by normalized non-linear regression with a variable slope model in Prism (GraphPad).

in vitro [18] = details: African green monkey
in vitro [19] = details: human
in vitro [20] = details: human; remark: listed apart in the source
CHIKV replicon [21] = test: microbe, parasite or virus in culture; details: Chikungunya virus, U2OS, read-out: Antiviral potency (EC50 [µM]) CHKV replicon
[22] = molecular target: T7, MAYV trans-replicase (P1234) (Mayaro virus, UniProt Q8QZ73); test: Trans-replicase assay, MAYV; type: cell-based; details: 100 µM, U-2 OS, 20 h
T7 construct: expression of the P1234 polyprotein drives replication of a reporter RNA template; expressed in transfected cells; host or cells: U-2 OS
Description: as §1

CHIKV = test: Selection for viral resistance by serial passage in U-2 OS cells, whole-genome sequencing; type: cell-based, Chikungunya virus; details: passage 1, MOI 1 FFU/cell, 16 h
[23] = Cytotoxicity assay (PrestoBlue, 24 h) in U-2 OS cells; type: cell-based, Human; details: human, U-2 OS cells
[24] = Cytotoxicity assay (PrestoBlue, 24 h) in NHDF cells; type: cell-based, Human; details: human, NHDF cells
Description: as §2

[25] = Severe acute respiratory syndrome coronavirus 2
[26] = Human respirovirus 3, Vero C1008
[27] = Vesicular stomatitis virus, Vero C1008, read-out: Antiviral potency (EC50 [µM]) VSV
[28] = Venezuelan equine encephalitis virus, Vero C1008, read-out: Antiviral potency (EC50 [µM]) VEEV

## N-[2-(4-fluorophenyl)ethyl]-1,5-dimethyl-N-[(2-methylpyrazol-3-yl)methyl]pyrazole-4-sulfonamide [GAP-1146924]
[1]
  Effect on RNA replication (GLuc) in trans-replicase assay, CHIKV: inhibited RNA replication
[2]
  Effect on RNA replication (GLuc) in trans-replicase assay, EILV: some inhibition
SARS-CoV-2-nLuc
  EC50: > 100 µM
ONNV
  EC50: 6.09 ± 2.2 µM
[3]
  Effect on RNA replication (GLuc) in trans-replicase assay, SINV: some GAP-1146924 inhibition
[4]
  Effect on RNA replication (GLuc) in trans-replicase assay, SFV: some GAP-1146924 inhibition
[5]
  Effect on RNA replication (GLuc) in trans-replicase assay, EEEV: some inhibition
[6]
  Effect on RNA replication (GLuc) in trans-replicase assay, ONNV: inhibited RNA replication
RSV A2-L19F
  EC50: > 10 µM
CHIKV 181/25; MOI 0.1, supernatant 24 hpi titered by FFA (Fig. 5), read-out: EC50 virus production, CHIKV
  EC50: 16.5 ± 3.99 µM
CHIKV 181/25; resistance study (Fig. 7), read-out: EC50 virus production, CHIKV WT
  EC50: 19.7 ± 7.78 µM
HPIV3-nLuc
  EC50: > 100 µM
MAYV
  EC50: 13 ± 5.14 µM
CHIKV-nLuc [7]
  Time-of-addition profile (stage of replication targeted): act on a stage after viral entry
VeroE6 cells
  CC50: > 100 µM
CHIKV-nLuc [8]; read-out: EC50 CHIKV-nLuc, NHDF
  EC50: 9.33 µM
CHIKV-nLuc [9]
  EC50: 23.4 ± 2.44 µM
[10]
  Effect on RNA replication (GLuc) in trans-replicase assay, BFV: inhibited RNA replication
VSV-nLuc; read-out: Antiviral potency (EC50 [µM]) VSV
  EC50: > 100 µM
SFV
  EC50: > 100 µM
SINV-GLuc
  EC50: > 100 µM
CHIKV replicon [11]
  EC50: 9.2 µM
[12]
  Effect on RNA replication (GLuc) in trans-replicase assay, WEEV: some inhibition
[13]; 5 µM
  Normalized percent inhibition in primary screen: 91.8%
U-2 OS cells [14]
  CC50: > 500 µM
[15]
  Effect on RNA replication (GLuc) in trans-replicase assay, VEEV: some inhibition
RRV
  EC50: > 100 µM
[16]
  Effect on RNA replication (GLuc) in trans-replicase assay, RRV: some GAP-1146924 inhibition
SINV
  EC50: > 100 µM
U-2 OS cells [17]
  CC50: > 100 µM
VEEV-TC83-nLuc; read-out: Antiviral potency (EC50 [µM]) VEEV
  EC50: 35.2 µM
NHDF cells
  CC50: > 500 µM

## Cc1ccc2sc(N(CCCN(C)C)C(=O)c3nc4ccccc4s3)nc2c1C [GAP-1041908]
In vitro [18]
  CC50: 34.9 µM
SARS-CoV-2-nLuc; [25]
  EC50: 28 µM
In vitro [19]
  selectivity ratio: < 10
HPIV3-nLuc; [26]
  EC50: 41 µM
In vitro [20]
  CC50: 31.4 µM
VSV-nLuc; [27]
  EC50: 32.7 µM
SINV-GLuc; Sindbis virus, Vero C1008
  EC50: 18.9 µM
CHIKV replicon [21]
  EC50: 32.1 µM
[13]
  inhibition at 5 µM: 94.7%
VEEV-TC83-nLuc; [28]
  EC50: 18.8 µM

## O=C(CN1C(=O)CNC1=O)NCc1n[nH]c2c1CCCCC2 [GAP-1173149, 2-(2,5-dioxoimidazolidin-1-yl)-N-(1,4,5,6,7,8-hexahydrocyclohepta[d]pyrazol-3-ylmethyl)acetamide]
[1]
  Effect on RNA replication (GLuc) in trans-replicase assay, CHIKV: suppressed replication
In vitro [18]
  CC50: > 100 µM
SARS-CoV-2-nLuc; [25]
  EC50: > 100 µM
ONNV; U2OS
  EC50: 5.22 ± 1.11 µM
[3]
  Effect on RNA replication (GLuc) in trans-replicase assay, SINV: no significant effect
[4]
  Effect on RNA replication (GLuc) in trans-replicase assay, SFV: no significant effect
[22]
  Effect on RNA replication (GLuc) in trans-replicase assay, MAYV: no significant effect
[5]
  Effect on RNA replication (GLuc) in trans-replicase assay, EEEV: effectively inhibited
[6]
  Effect on RNA replication (GLuc) in trans-replicase assay, ONNV: suppressed replication
RSV A2-L19F; human respiratory syncytial virus
  EC50: > 10 µM
CHIKV 181/25; Chikungunya virus, U2OS, MOI 0.1, supernatant 24 hpi titered by FFA (Fig. 5), read-out: EC50 virus production, CHIKV
  EC50: 10.2 ± 0.95 µM
CHIKV 181/25; Chikungunya virus, U2OS, resistance study (Fig. 7), read-out: EC50 virus production, CHIKV WT
  EC50: 9.15 ± 1.62 µM
HPIV3-nLuc; [26]
  EC50: > 100 µM
MAYV; Mayaro virus, U2OS
  EC50: > 100 µM
CHIKV-nLuc [7]
  Time-of-addition profile (stage of replication targeted): act on a stage after viral entry
CHIKV-nLuc [8]; Chikungunya virus, NHDF
  EC50: 11.6 µM
CHIKV-nLuc [8]; NHDF cells
  selectivity index (SI = CC50/EC50): > 43
CHIKV-nLuc [9]; Chikungunya virus, U2OS
  EC50: 13.6 ± 0.16 µM
In vitro [20]
  CC50: > 100 µM
[10]
  Effect on RNA replication (GLuc) in trans-replicase assay, BFV: effectively inhibited
VSV-nLuc; [27]
  EC50: > 100 µM
SFV; Semliki Forest virus, U2OS
  EC50: > 100 µM
SINV-GLuc; Sindbis virus, Vero C1008
  EC50: > 100 µM
CHIKV replicon [21]
  EC50: 5.3 µM
CHIKV
  Reduction of virus titers at P1 compared with DMSO-treated controls: 1 log
[13]
  inhibition at 5 µM: 88.7%
[23]
  CC50 at 24 h: > 500 µM
[15]
  Effect on RNA replication (GLuc) in trans-replicase assay, VEEV: did not show significant VEEV inhibition
RRV; Ross River virus, U2OS
  EC50: 10 ± 0.64 µM
[16]
  Effect on RNA replication (GLuc) in trans-replicase assay, RRV: suppressed replication
SINV; Sindbis virus, U2OS
  EC50: > 100 µM
VEEV-TC83-nLuc; [28]
  EC50: 52.3 µM
[24]
  CC50 at 24 h: > 500 µM
